Assay results from US5001121A, “Cephalosporin compounds and pharmaceutical compositions thereof” (Mochida Pharmaceutical Co., Ltd., priority 1985, dated 1991).
Converted amounts (≈) assume the structure as drawn. Where two headings read alike, the source gives them in different places.

How the values were obtained:
[1] = tested on: Bacteroides fragilis 5524; assay: Antibacterial activity in vitro, agar plate dilution method (MIC); assay type: cell-based; details: Mueller Hinton agar, 10^6 cells/ml, 37° C., 20 hours
Description: (§1) Antibacterial activity in vitro was determined in accordance with the agar plate dilution method. A platinum loop each of test bacteria (10^6 cells/ml), cultured in Mueller Hinton broth, was inoculated on Mueller Hinton agar plates which contained test compounds at various concentrations. After cultivating at 37° C. for 20 hours, the minimum inhibitory concentration (MIC μg/ml) was determined.

Escherichia coli 67 = assay: as above; assay type: cell-based; details: Mueller Hinton agar, 10^6 cells/ml, 37° C., 20 hours
Description: as §1

[2] = tested on: Klebsiella pneumoniae IFO3317; assay: as above; assay type: cell-based; details: Mueller Hinton agar, 10^6 cells/ml, 37° C., 20 hours
Description: as §1

[3] = tested on: Pseudomonas aeruginosa IFO3445; assay: as above; assay type: cell-based; details: Mueller Hinton agar, 10^6 cells/ml, 37° C., 20 hours
Description: as §1

[4] = tested on: Serratia marcescens IFO3759; assay: as above; assay type: cell-based; details: Mueller Hinton agar, 10^6 cells/ml, 37° C., 20 hours
Description: as §1

[5] = tested on: Staphylococcus aureus Smith; assay: as above; assay type: cell-based; details: Mueller Hinton agar, 10^6 cells/ml, 37° C., 20 hours
Description: as §1

Escherichia coli 111 = assay: Protection ability against systemic infection; assay type: in vivo, ICR mice; details: Escherichia coli, 111, in Mus musculus, iv, 168 h, i.p. infection, i.v. compound 1 hour later, survival at 1 week
Description: (§2) Protection ability against systemic infection was determined as follows. An aqueous suspension of test bacteria was intraperitoneally injected into 10 four week old ICR mice. One hour after the infection, test compounds were intravenously administered. The number of surviving mice was counted 1 week after injection to determine the dose at which 50% of the test animals were alive (ED50 :mg/kg).

[6] = tested on: Pseudomonas aeruginosa IFO3445; assay: Protection ability against systemic infection; assay type: in vivo, ICR mice; details: iv, 168 h, i.p. infection, i.v. compound 1 hour later, survival at 1 week
Description: as §2

Serratia marcescens 274 = assay: Protection ability against systemic infection; assay type: in vivo, ICR mice; details: iv, 168 h, i.p. infection, i.v. compound 1 hour later, survival at 1 week
Description: as §2

[7] = tested on: Staphylococcus aureus 242 (methicillin-resistant strain); assay: Protection ability against systemic infection; assay type: in vivo, ICR mice; details: in Mus musculus, iv, 168 h, i.p. infection, i.v. compound 1 hour later, survival at 1 week
Description: as §2

LD50, Probit method = details: in vivo, iv
Description: Next, LD50 of representative examples of the compounds of the present invention is shown in Table 3 wherein LD50 was determined in accordance with the Probit method.

[8] = in Mus musculus, Table 2-b, read-out: ED50
[9] = in Mus musculus, Table 2-a, read-out: ED50
[10] = Serratia marcescens, 274, in Mus musculus, Table 2-a

Structure (SMILES)	MIC (Escherichia coli 67) [µg/mL]	MIC [2] [µg/mL]	MIC [3] [µg/mL]	MIC [4] [µg/mL]	MIC [5] [µg/mL]	LD50 (LD50, Probit method) [mg/kg]	ED50 [6, 9] [mg/kg]	ED50 (Serratia marcescens 274; [10]) [mg/kg]	ED50 ([7]; Table 2-a, read-out: ED50) [mg/kg]	ED50 (Escherichia coli 111; Table 2-a, read-out: ED50) [mg/kg]	also measured
Cc1cc(SCC2=C(C(=O)O)N3C(=O)[C@@H](NC(=O)/C(=N\O[C@H](C(=O)O)c4ccc(O)c(O)c4)c4csc(N)n4)[C@H]3SC2)n2nc(C(=O)O)nc2n1 [Compound 9, (6R,7R)-7-[2-(2-amino-4-thiazolyl)-2-[Z-[(S)-carboxy(3,4-dihydroxyphenyl)-methyl]oxyimino]acetamido]-3-[(2-carboxy-5-methyl-s-triazolo [1,5-a]pyrimidin-7-yl)thiomethyl]-8-oxo-5-thia-1-azabicyclo[4.2.0]oct-2-ene-2-carboxylic acid]	0.1 (≈ 0.132 µM)	< 0.05	1.56 (≈ 2.06 µM)	0.05 (≈ 0.066 µM)	0.78 (≈ 1.03 µM)	> 1000					MIC [1]: 6.25 µg/mL (≈ 8.25 µM); ED50 (Escherichia coli 111; Table 2-b, read-out: ED50): 1.73 mg/kg; ED50 [6, 8]: 95 mg/kg; ED50 (Serratia marcescens 274; [8]): 0.47 mg/kg; ED50 ([7]; Table 2-b, read-out: ED50): 3.34 mg/kg
Cc1cc(SCC2=C(C(=O)O)N3C(=O)[C@@H](NC(=O)/C(=N\OC(=O)c4cc(O)c(O)cc4C)c4csc(N)n4)[C@H]3SC2)n2nc(C(=O)O)nc2n1 [Compound 3]	< 0.05	< 0.05	0.2 (≈ 0.27 µM)	< 0.05			407	1.73	1.79		
CC(C)(O/N=C(\C(=O)N[C@@H]1C(=O)N2C(C(=O)[O-])=C(C[n+]3ccccc3)CS[C@H]12)c1csc(N)n1)C(=O)O [CAZ, Ceftazidime, reference compound]								4.23		6.55	ED50 (Escherichia coli 111; Table 2-b): 3.91 mg/kg; ED50 ([6]; Pseudomonas aeruginosa, IFO3445, in Mus musculus, Table 2-a): 229 mg/kg; ED50 ([6]; Pseudomonas aeruginosa, IFO3445, in Mus musculus, Table 2-b): 230 mg/kg; ED50 (Serratia marcescens 274; Serratia marcescens, 274, in Mus musculus, Table 2-b): 6.41 mg/kg; ED50 ([7]; Table 2-a): > 100 mg/kg; ED50 ([7]; Table 2-b): > 2100 mg/kg
CC(=O)Oc1cc(C)c(C(=O)O/N=C(\C(=O)N[C@@H]2C(=O)N3C(C(=O)O)=C(CSc4cc(C)nc5nc(C(=O)O)nn45)CS[C@H]23)c2csc(N)n2)cc1OC(C)=O [Compound 2, (6R,7R)-7-[2-(2-amino-4-thiazolyl)-2-[Z-(4,5-diacetoxy-2-methylbenzoyl)oxyimino]acetamido]-3-[(2-carboxy-5-methyl-s-triazolo [1,5-a]pyrimidin-7-yl)thiomethyl]-8-oxo-5-thia-1-azabicyclo[4.2.0]oct-2-ene-2-carboxylic acid]	< 0.05	< 0.05	0.2 (≈ 0.242 µM)	< 0.05	0.78 (≈ 0.945 µM)	> 1000	212		7.9	2.28	ED50 (Serratia marcescens 274; [9]): 3.08 mg/kg
